Results reported in ChEMBL document CHEMBL1201862, “PubChem BioAssay data set” (2004).
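Exposure lasted 48 hours, with cells grown in 96-well plates and compounds tested at five concentrations. At the GI50, growth is halved.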 Activity calls are given as the source filed them. No stated cut-off is given here; in the data, active = GI50 up to about 1.1 µM and inactive = higher.

Columns and labels:
Assay in all cases: NCI-60 cell line screen, 48 h
786-0 = test system: 786-0
A498 = test system: A498
A549 = test system: A549
ACHN = test system: ACHN
CCRF-CEM = test system: CCRF-CEM
COLO 205 = test system: COLO 205
DLD-1 = test system: DLD-1
DMS-114 = test system: DMS-114
EKVX = test system: EKVX
HCC 2998 = test system: HCC 2998
HCT-116 = test system: HCT-116
HCT-15 = test system: HCT-15
HL-60 = test system: HL-60
HOP-18 = test system: HOP-18
HOP-62 = test system: HOP-62
HOP-92 = test system: HOP-92
HT-29 = test system: HT-29
IGROV-1 = test system: IGROV-1
K562 = test system: K562
KM-20L2 = test system: KM-20L2
KM12 = test system: KM12
LOX IMVI = test system: LOX IMVI
M14 = test system: M14
M19-MEL = test system: M19-MEL
MOLT-4 = test system: MOLT-4
Malme-3M = test system: Malme-3M
NCI-H226 = test system: NCI-H226
NCI-H23 = test system: NCI-H23
NCI-H460 = test system: NCI-H460
NCI-H522 = test system: NCI-H522
OVCAR-3 = test system: OVCAR-3
OVCAR-5 = test system: OVCAR-5
OVCAR-8 = test system: OVCAR-8
RPMI-8226 = test system: RPMI-8226
RXF 393 = test system: RXF 393
SF-268 = test system: SF-268
SF-295 = test system: SF-295
SF-539 = test system: SF-539
SK-MEL-28 = test system: SK-MEL-28
SK-MEL-2 = test system: SK-MEL-2
SK-MEL-5 = test system: SK-MEL-5
SK-OV-3 = test system: SK-OV-3
SN12C = test system: SN12C
SNB-19 = test system: SNB-19
SNB-75 = test system: SNB-75
SW-620 = test system: SW-620
TK-10 = test system: TK-10
U-251 = test system: U-251
UACC-257 = test system: UACC-257
UACC-62 = test system: UACC-62
UO-31 = test system: UO-31
XF498 = test system: XF498
CAKI-1 = test system: CAKI-1
DMS-273 = test system: DMS-273
LXFL 529 = test system: LXFL 529
OVCAR-4 = test system: OVCAR-4
SNB-78 = test system: SNB-78
SR = test system: SR

For O=C1C(c2ccccc2)=[N+]([O-])c2cc([N+](=O)[O-])ccc21, the GI50 (786-0) was 26.3 µM (inactive), the GI50 (A498) was 27.6 µM (inactive) and the GI50 (A549) was 32 µM (inactive). For the same compound, the GI50 (ACHN) was 24.9 µM (inactive), the GI50 (CCRF-CEM) was 8.93 µM (inactive) and the GI50 (COLO 205) was 21.5 µM (inactive). For the same compound, the GI50 (DLD-1) was 21.6 µM (inactive), the GI50 (DMS-114) was 14.3 µM (inactive) and the GI50 (EKVX) was 17.4 µM (inactive). For the same compound, the GI50 (HCC 2998) was 27.5 µM (inactive), the GI50 (HCT-116) was 23.8 µM (inactive) and the GI50 (HCT-15) was 21.4 µM. For the same compound, the GI50 (HL-60) was 7.52 µM (inactive), the GI50 (HOP-18) was 88.1 µM (inactive) and the GI50 (HOP-62) was > 100 µM (inactive). The GI50 (HOP-92) was 30.5 µM (inactive), the GI50 (HT-29) was 21.9 µM (inactive) and the GI50 (IGROV-1) was 22.4 µM (inactive). The GI50 (K562) was 22.8 µM (inactive), the GI50 (KM-20L2) was 23.5 µM (inactive) and the GI50 (KM12) was 20.5 µM (inactive). For the same compound, the GI50 (LOX IMVI) was 14.3 µM (inactive), the GI50 (M14) was > 10 µM (inactive) and the GI50 (M19-MEL) was 17.7 µM (inactive). The GI50 (MOLT-4) was 18.7 µM (inactive), the GI50 (Malme-3M) was 20.6 µM (inactive) and the GI50 (NCI-H226) was 73.3 µM (inactive). For the same compound, the GI50 (NCI-H23) was 43.6 µM (inactive), the GI50 (NCI-H460) was 24.7 µM (inactive) and the GI50 (NCI-H522) was 15.3 µM (inactive). The GI50 (OVCAR-3) was 18.2 µM (inactive), the GI50 (OVCAR-5) was 69.8 µM (inactive) and the GI50 (OVCAR-8) was 16.4 µM (inactive). For the same compound, the GI50 (RPMI-8226) was 22.8 µM (inactive), the GI50 (RXF 393) was 15.9 µM (inactive) and the GI50 (SF-268) was 19.7 µM (inactive). For the same compound, the GI50 (SF-295) was 48.2 µM (inactive), the GI50 (SF-539) was 25.5 µM (inactive) and the GI50 (SK-MEL-28) was 22.6 µM (inactive). For the same compound, the GI50 (SK-MEL-2) was > 100 µM (inactive), the GI50 (SK-MEL-5) was 19.3 µM (inactive) and the GI50 (SK-OV-3) was > 100 µM (inactive). The GI50 (SN12C) was 25.6 µM (inactive), the GI50 (SNB-19) was 57 µM (inactive) and the GI50 (SNB-75) was 41.9 µM (inactive). For the same compound, the GI50 (SW-620) was 60.3 µM (inactive), the GI50 (TK-10) was 20.1 µM (inactive) and the GI50 (U-251) was 27.7 µM (inactive). The GI50 (UACC-257) was 18.5 µM (inactive), the GI50 (UACC-62) was 13.1 µM (inactive) and the GI50 (UO-31) was 52.1 µM (inactive). For the same compound, the GI50 (XF498) was 24 µM (inactive).
CN/C(=N/C#N)NCc1ccccc1 was tested, and the GI50 (786-0) was > 100 µM (inactive), the GI50 (A498) was > 100 µM (inactive) and the GI50 (A549) was > 100 µM (inactive). For the same compound, the GI50 (ACHN) was > 100 µM (inactive), the GI50 (CAKI-1) was > 100 µM (inactive) and the GI50 (CCRF-CEM) was > 100 µM (inactive). For the same compound, the GI50 (COLO 205) was > 100 µM (inactive), the GI50 (DLD-1) was > 100 µM (inactive) and the GI50 (DMS-114) was > 100 µM (inactive). For the same compound, the GI50 (DMS-273) was > 100 µM (inactive), the GI50 (EKVX) was 0.0512 µM (active) and the GI50 (HCC 2998) was 27.4 µM (inactive). For the same compound, the GI50 (HCT-116) was > 100 µM (inactive), the GI50 (HCT-15) was greater than 100 µM and the GI50 (HL-60) was > 100 µM (inactive). For the same compound, the GI50 (HOP-62) was > 100 µM (inactive), the GI50 (HOP-92) was > 100 µM (inactive) and the GI50 (HT-29) was > 100 µM (inactive). The GI50 (IGROV-1) was > 100 µM (inactive), the GI50 (KM-20L2) was > 100 µM (inactive) and the GI50 (KM12) was > 100 µM (inactive). The GI50 (LOX IMVI) was > 100 µM (inactive), the GI50 (LXFL 529) was > 100 µM (inactive) and the GI50 (M14) was > 100 µM (inactive). The GI50 (M19-MEL) was > 100 µM (inactive), the GI50 (MOLT-4) was > 100 µM (inactive) and the GI50 (Malme-3M) was > 100 µM (inactive). The GI50 (NCI-H226) was > 100 µM (inactive), the GI50 (NCI-H23) was > 100 µM (inactive) and the GI50 (NCI-H460) was > 100 µM (inactive). For the same compound, the GI50 (NCI-H522) was > 100 µM (inactive), the GI50 (OVCAR-3) was > 100 µM (inactive) and the GI50 (OVCAR-4) was > 100 µM (inactive). For the same compound, the GI50 (OVCAR-5) was > 100 µM (inactive), the GI50 (OVCAR-8) was > 100 µM (inactive) and the GI50 (RPMI-8226) was > 100 µM (inactive). For the same compound, the GI50 (SF-268) was > 100 µM (inactive), the GI50 (SF-295) was > 100 µM (inactive) and the GI50 (SF-539) was > 100 µM (inactive). For the same compound, the GI50 (SK-MEL-28) was > 100 µM (inactive), the GI50 (SK-MEL-2) was > 100 µM (inactive) and the GI50 (SK-MEL-5) was > 100 µM (inactive). The GI50 (SK-OV-3) was > 100 µM (inactive), the GI50 (SN12C) was > 100 µM (inactive) and the GI50 (SNB-19) was > 100 µM (inactive). The GI50 (SNB-75) was > 100 µM (inactive), the GI50 (SNB-78) was > 100 µM (inactive) and the GI50 (SR) was > 100 µM (inactive). The GI50 (SW-620) was > 100 µM (inactive), the GI50 (TK-10) was > 100 µM (inactive) and the GI50 (U-251) was > 100 µM (inactive). The GI50 (UACC-257) was > 100 µM (inactive), the GI50 (UO-31) was > 100 µM (inactive) and the GI50 (XF498) was > 100 µM (inactive).
COc1cc2cccc(/N=C\c3cccc(OC)c3OC(C)C)c2cc1OC was tested, and the GI50 (786-0) was 18.5 µM (inactive), the GI50 (A498) was 56.9 µM (inactive) and the GI50 (A549) was 29.7 µM (inactive). The GI50 (ACHN) was 36.6 µM (inactive), the GI50 (CAKI-1) was 24 µM (inactive) and the GI50 (CCRF-CEM) was 21.2 µM (inactive). The GI50 (COLO 205) was 36.2 µM (inactive), the GI50 (DLD-1) was 25.6 µM (inactive) and the GI50 (DMS-114) was 17 µM (inactive). For the same compound, the GI50 (EKVX) was 52 µM (inactive), the GI50 (HCC 2998) was 35.9 µM (inactive) and the GI50 (HOP-62) was 26.5 µM (inactive). The GI50 (HT-29) was 23.2 µM (inactive), the GI50 (IGROV-1) was 24 µM (inactive) and the GI50 (K562) was 15.6 µM (inactive). The GI50 (KM-20L2) was 51.8 µM (inactive), the GI50 (KM12) was 19 µM (inactive) and the GI50 (LXFL 529) was 14.7 µM (inactive). The GI50 (M14) was 17.9 µM (inactive), the GI50 (M19-MEL) was 21.3 µM (inactive) and the GI50 (MOLT-4) was 19.1 µM (inactive). The GI50 (Malme-3M) was 22.3 µM (inactive), the GI50 (NCI-H23) was 23.4 µM (inactive) and the GI50 (NCI-H460) was 33.9 µM (inactive). For the same compound, the GI50 (NCI-H522) was 17.9 µM (inactive), the GI50 (OVCAR-3) was 19.4 µM (inactive) and the GI50 (OVCAR-4) was 18.7 µM (inactive). For the same compound, the GI50 (OVCAR-5) was > 100 µM (inactive), the GI50 (OVCAR-8) was 21.5 µM (inactive) and the GI50 (RPMI-8226) was 13.2 µM (inactive). For the same compound, the GI50 (SF-268) was 24.4 µM (inactive), the GI50 (SF-295) was 19 µM (inactive) and the GI50 (SK-MEL-28) was 24.3 µM (inactive). For the same compound, the GI50 (SK-MEL-2) was 18 µM (inactive), the GI50 (SK-MEL-5) was 24.8 µM (inactive) and the GI50 (SK-OV-3) was 25.2 µM (inactive). For the same compound, the GI50 (SN12C) was 40.1 µM (inactive), the GI50 (SNB-75) was 21.7 µM (inactive) and the GI50 (SNB-78) was 44.7 µM (inactive). For the same compound, the GI50 (SW-620) was 21 µM (inactive), the GI50 (TK-10) was 25.6 µM (inactive) and the GI50 (U-251) was 19.7 µM (inactive). The GI50 (UACC-257) was 20.8 µM (inactive), the GI50 (UACC-62) was 19.6 µM (inactive) and the GI50 (UO-31) was 30.1 µM (inactive). The GI50 (XF498) was 26.8 µM (inactive).
